Test results taken from US20260007133A1, “HERBICIDAL COMPOSITION COMPRISING AZINE COMPOUNDS” (BASF SE, priority 2022, published 2026).
“And” between values parts separate entries of the source, which are not always exact repeats. Equal values may be shown once. Read-outs that look alike come from different tables or passages of the source.

Experiments:
Type in all cases: in vivo
Galium aparine = assay: Greenhouse pre-emergence (PRE) herbicidal test on GALAP; settings: Galium aparine, pre-emergence; PRE; GALAP; use rate 8 gai/ha
Method in brief: (§1)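 Seeds sown in loamy sand (~3.0% humus); compounds in water applied by fine nozzles directly after sowing, then pots irrigated and hooded until rooting. Plants held at 10-25° C or 20-35° C by species; damage scored 0-100 (100 = no emergence/complete destruction) 20 days after treatment.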

Geranium pusillum [1] = assay: Greenhouse pre-emergence (PRE) herbicidal test on GERPU; settings: Geranium pusillum, pre-emergence, GERPU PRE
Method in brief: as §1

Setaria viridis = assay: Greenhouse pre-emergence (PRE) herbicidal test on SETVI; settings: Setaria viridis, pre-emergence, 480 h, 20 DAT
Method in brief: as §1

Abutilon theophrasti = assay: Greenhouse post-emergence (POST) herbicidal test on ABUTH; settings: Abutilon theophrasti, post-emergence; for pest or weed control at 2 g/ha: I-3 solo 2 gai/ha
Method in brief: (§2)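 Sow or transplant seedlings into loamy-sand pots; grow to 3–15 cm; spray aqueous suspension/emulsion of actives from a 5% by weight emulsion concentrate; hold at 10-25° C or 20-35° C depending on species; score injury 0–100 at 20 DAT.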

Amaranthus retroflexus = assay: Greenhouse post-emergence (POST) herbicidal test on AMARE; settings: Amaranthus retroflexus, post-emergence
Method in brief: as §2

Digitaria sanguinalis = assay: Greenhouse post-emergence (POST) herbicidal test on DIGSA; settings: for pest or weed control at 2 g/ha: I-3 solo 2 gai/ha
Method in brief: as §2

Geranium pusillum [2] = assay: Greenhouse post-emergence (POST) herbicidal test on GERPU; settings: for inhibition at 2 g/ha: use rate 2 gai/ha; for inhibition at 4 g/ha: use rate 4 gai/ha
Method in brief: as §2

Ipomoea hederacea = assay: Greenhouse post-emergence (POST) herbicidal test on IPOHE; settings: Ipomoea hederacea, post-emergence
Method in brief: as §2

COc1c(Cl)cc(F)c(F)c1Nc1nc(N)nc(C(C)(C)F)n1 [Compound I-3] gave an inhibition at 8 g/ha (Galium aparine) of 75%, an inhibition at 2 g/ha (Geranium pusillum [1]; use rate 2 gai/ha) of 0% and an inhibition at 8 g/ha (Geranium pusillum [1]; use rate 8 gai/ha) of 15%. The pest or weed control at 2 g/ha (Setaria viridis; PRE, 2 gai/ha) was 60%, the inhibition at 2 g/ha (Setaria viridis; PRE, SETVI, 2 gai/ha, read-out: % activity solo application) was 50% and the inhibition at 2 g/ha (Setaria viridis; PRE, SETVI, use rate 2 gai/ha, read-out: solo application % activity) was 20%. The inhibition at 2 g/ha (Setaria viridis; SETVI PRE, use rate 2 gai/ha, read-out: % activity) was 60%, the pest or weed control at 2 g/ha (Abutilon theophrasti; 432 h, POST, ABUTH, 18 DAT) was 35% and the pest or weed control at 8 g/ha (Abutilon theophrasti; 432 h, POST, ABUTH, I-3 solo 8 gai/ha, 18 DAT) was 65%. For the same compound, the pest or weed control at 8 g/ha (Abutilon theophrasti; 480 h, POST, 8 gai/ha, 20 DAT) was 50%, the inhibition at 2 g/ha (Abutilon theophrasti; 480 h, POST, ABUTH, 2 gai/ha, 20 DAT, read-out: % activity solo application) was 10% and the pest or weed control at 2 g/ha (Abutilon theophrasti; 480 h, POST, ABUTH, 20 DAT) was 50%. The pest or weed control at 8 g/ha (Abutilon theophrasti; 480 h, POST, ABUTH, I-3 solo 8 gai/ha, 20 DAT) was 80%, the inhibition at 2 g/ha (Abutilon theophrasti; 480 h, POST, ABUTH, use rate 2 gai/ha, 20 DAT, read-out: solo application % activity) was 10% and the inhibition at 4 g/ha (Abutilon theophrasti; 480 h, POST, ABUTH, use rate 4 gai/ha, 20 DAT) was 10%. It also gave an inhibition at 16 g/ha (Abutilon theophrasti; 480 h, POST, ABUTH, use rate 16 gai/ha, 20 DAT) of 50%, an inhibition at 2 g/ha (Abutilon theophrasti; ABUTH POST, use rate 2 gai/ha, read-out: % activity) of 20% and an inhibition at 8 g/ha (Abutilon theophrasti; ABUTH POST, use rate 8 gai/ha, read-out: % activity) of 85%. It also gave an inhibition at 2 g/ha (Abutilon theophrasti; POST, ABUTH, use rate 2 gai/ha, read-out: % activity) of 30%, a pest or weed control at 8 g/ha (Amaranthus retroflexus; 432 h, POST, AMARE, I-3 solo 8 gai/ha, 18 DAT) of 90% and an inhibition at 2 g/ha (Amaranthus retroflexus; 480 h, POST, AMARE, 2 gai/ha, 20 DAT, read-out: % activity solo application) of 45%. For the same compound, the inhibition at 4 g/ha (Amaranthus retroflexus; 480 h, POST, AMARE, use rate 4 gai/ha, 20 DAT) was 50%, the inhibition at 2 g/ha (Amaranthus retroflexus; AMARE POST, use rate 2 gai/ha, read-out: % activity) was 60% and the inhibition at 8 g/ha (Amaranthus retroflexus; AMARE POST, use rate 8 gai/ha, read-out: % activity) was 75%. For the same compound, the inhibition at 2 g/ha (Amaranthus retroflexus; POST, AMARE, use rate 2 gai/ha, read-out: % activity) was 70%, the “% activity” value (Digitaria sanguinalis; DIGSA POST, use rate 2 gai/ha) was 0% and the “% activity” value (Digitaria sanguinalis; DIGSA POST, use rate 8 gai/ha) was 75% and 50%. It also gave an inhibition at 2 g/ha (Digitaria sanguinalis; Digitaria sanguinalis, post-emergence, 432 h, POST, DIGSA, 2 gai/ha, 18 DAT, read-out: % activity solo application) of 10%, an inhibition at 8 g/ha (Digitaria sanguinalis; Digitaria sanguinalis, post-emergence, 432 h, POST, DIGSA, 8 gai/ha, 18 DAT, read-out: % activity solo application) of 10% and a pest or weed control at 2 g/ha (Digitaria sanguinalis; Digitaria sanguinalis, post-emergence, 432 h, POST, DIGSA, 18 DAT) of 10%. It also gave a pest or weed control at 8 g/ha (Digitaria sanguinalis; Digitaria sanguinalis, post-emergence, 432 h, POST, DIGSA, I-3 solo 8 gai/ha, 18 DAT) of 10%, an inhibition at 8 g/ha (Digitaria sanguinalis; Digitaria sanguinalis, post-emergence, 480 h, DIGSA POST, 20 DAT, use rate 8 gai/ha, read-out: % activity) of 40% and a pest or weed control at 8 g/ha (Digitaria sanguinalis; Digitaria sanguinalis, post-emergence, 480 h, POST, 8 gai/ha, 20 DAT) of 40%. The inhibition at 8 g/ha (Digitaria sanguinalis; Digitaria sanguinalis, post-emergence, 480 h, POST, DIGSA, 8 gai/ha, 20 DAT, read-out: % activity solo application) was 85%, the pest or weed control at 2 g/ha (Digitaria sanguinalis; Digitaria sanguinalis, post-emergence, 480 h, POST, DIGSA, 20 DAT) was 5% and the inhibition at 8 g/ha (Digitaria sanguinalis; Digitaria sanguinalis, post-emergence, 480 h, POST, DIGSA, use rate 8 gai/ha, 20 DAT, read-out: solo application % activity) was 10%. The “solo application % activity” value (Digitaria sanguinalis; POST, DIGSA, use rate 2 gai/ha, 20 DAT) was 0%, the “% activity” value (Geranium pusillum [2]; GERPU POST, use rate 8 gai/ha) was 50% and the pest or weed control at 2 g/ha (Geranium pusillum [2]; Geranium pusillum, post-emergence, 432 h, POST, GERPU, I-3 solo 2 gai/ha, 18 DAT) was 25%. For the same compound, the inhibition at 2 g/ha (Geranium pusillum [2]; Geranium pusillum, post-emergence, 480 h, GERPU POST, 20 DAT, read-out: % activity) was 25%, the pest or weed control at 2 g/ha (Geranium pusillum [2]; Geranium pusillum, post-emergence, 480 h, POST, 2 gai/ha, 20 DAT) was 10% and the pest or weed control at 8 g/ha (Geranium pusillum [2]; Geranium pusillum, post-emergence, 480 h, POST, 8 gai/ha, 20 DAT) was 75%. For the same compound, the pest or weed control at 2 g/ha (Geranium pusillum [2]; Geranium pusillum, post-emergence, 480 h, POST, GERPU, I-3 solo 2 gai/ha, 20 DAT) was 20%, the pest or weed control at 8 g/ha (Geranium pusillum [2]; Geranium pusillum, post-emergence, 480 h, POST, GERPU, I-3 solo 8 gai/ha, 20 DAT) was 10% and the inhibition at 4 g/ha (Geranium pusillum [2]; Geranium pusillum, post-emergence, 480 h, POST, GERPU, 20 DAT) was 0%. For the same compound, the inhibition at 16 g/ha (Geranium pusillum [2]; Geranium pusillum, post-emergence, 480 h, POST, GERPU, use rate 16 gai/ha, 20 DAT) was 10%, the inhibition at 2 g/ha (Geranium pusillum [2]; Geranium pusillum, post-emergence, GERPU POST, read-out: % activity) was 30% and the inhibition at 8 g/ha (Geranium pusillum [2]; Geranium pusillum, post-emergence, GERPU POST, use rate 8 gai/ha, read-out: % activity) was 70%. It also gave an inhibition at 2 g/ha (Geranium pusillum [2]; Geranium pusillum, post-emergence, POST, GERPU, read-out: % activity) of 20%, an inhibition at 4 g/ha (Geranium pusillum [2]; Geranium pusillum, post-emergence, POST, GERPU) of 40% and a pest or weed control at 8 g/ha (Ipomoea hederacea; 480 h, POST, 8 gai/ha, 20 DAT) of 90%. It also gave an inhibition at 2 g/ha (Ipomoea hederacea; 480 h, POST, IPOHE, 2 gai/ha, 20 DAT, read-out: % activity solo application) of 80%, an inhibition at 8 g/ha (Ipomoea hederacea; 480 h, POST, IPOHE, 8 gai/ha, 20 DAT, read-out: % activity solo application) of 70% and an inhibition at 2 g/ha (Ipomoea hederacea; IPOHE POST, use rate 2 gai/ha, read-out: % activity) of 65%.
